Measurements: PubChem BioAssay (NCI)
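Assay format: 96-well plates, 48-hour exposure. At the GI50, growth is halved. TGI marks complete inhibition of growth.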

Legend:
Assay in all cases: NCI tumour cell line growth inhibition, 48 h
[1] = test system: 786-0 renal
[2] = test system: A498 renal
[3] = test system: A549 NSCLC
[4] = test system: ACHN renal
[5] = test system: BT-549 breast
[6] = test system: CAKI-1 renal
[7] = test system: CCRF-CEM leukemia
[8] = test system: COLO 205 colon
[9] = test system: DU-145 prostate
[10] = test system: EKVX NSCLC
[11] = test system: HCC-2998 colon
[12] = test system: HCT-116 colon
[13] = test system: HCT-15 colon
[14] = test system: HL-60(TB) leukemia
[15] = test system: HOP-62 NSCLC
[16] = test system: HOP-92 NSCLC
[17] = test system: HS 578T breast
[18] = test system: HT29 colon
[19] = test system: IGROV1 ovarian
[20] = test system: K-562 leukemia
[21] = test system: KM12 colon
[22] = test system: LOX IMVI melanoma
[23] = test system: M14 melanoma
[24] = test system: MALME-3M melanoma
[25] = test system: MCF7 breast
[26] = test system: MDA-MB-435
[27] = test system: MDA-N
[28] = test system: NCI-H23 lung
[29] = test system: NCI-H460 lung
[30] = test system: NCI-H522 lung
[31] = test system: NCI/ADR-RES ovarian
[32] = test system: OVCAR-3 ovarian
[33] = test system: OVCAR-4 ovarian
[34] = test system: OVCAR-5 ovarian
[35] = test system: OVCAR-8 ovarian
[36] = test system: PC-3 prostate
[37] = test system: RPMI-8226 leukemia
[38] = test system: RXF 393 renal
[39] = test system: SF-268 CNS
[40] = test system: SF-295 CNS
[41] = test system: SF-539 CNS
[42] = test system: SK-MEL-2 melanoma
[43] = test system: SK-MEL-28 melanoma
[44] = test system: SK-MEL-5 melanoma
[45] = test system: SN12C renal
[46] = test system: SNB-19 CNS
[47] = test system: SNB-75 CNS
[48] = test system: SR leukemia
[49] = test system: SW-620 colon
[50] = test system: T-47D breast
[51] = test system: TK-10 renal
[52] = test system: U251 CNS
[53] = test system: UACC-257 melanoma
[54] = test system: UACC-62 melanoma
[55] = test system: UO-31 renal
[56] = test system: MDA-MB-231 breast
[57] = test system: MOLT-4 leukemia
[58] = test system: NCI-H226 lung
[59] = test system: SK-OV-3 ovarian

SMILES: COc1ccccc1C1c2cc3c(cc2OC(N2CCCC2)C1C)OCO3 (configuration not stated)
- TGI [1]: 35.3 µM
- TGI [2]: 30.3 µM
- TGI [3]: 46 µM
- TGI [4]: > 57.5 µM
- TGI [5]: 48 µM
- TGI [6]: 31.4 µM
- TGI [7]: 47.8 µM
- TGI [8]: 35.6 µM
- TGI [9]: 26.9 µM
- TGI [10]: 50.6 µM
- TGI [11]: 32.9 µM
- TGI [12]: 29.1 µM
- TGI [13]: 44.6 µM
- TGI [14]: 49 µM
- TGI [15]: 29.4 µM
- TGI [16]: 20.6 µM
- TGI [17]: 30 µM
- TGI [18]: 39.5 µM
- TGI [19]: 51.5 µM
- TGI [20]: > 53.3 µM
- TGI [21]: 39.5 µM
- TGI [22]: 38.1 µM
- TGI [23]: 30.1 µM
- TGI [24]: 43.2 µM
- TGI [25]: 39.4 µM
- TGI [26]: 34.2 µM
- TGI [27]: 28.9 µM
- TGI [28]: > 31.6 µM
- TGI [29]: 40.9 µM
- TGI [30]: 42.1 µM
- TGI [31]: 53.7 µM
- TGI [32]: 32.4 µM
- TGI [33]: 70.5 µM
- TGI [34]: 41.1 µM
- TGI [35]: 64 µM
- TGI [36]: 32.4 µM
- TGI [37]: 38.8 µM
- TGI [38]: 36.9 µM
- TGI [39]: 30.9 µM
- TGI [40]: 39.3 µM
- TGI [41]: 31.7 µM
- TGI [42]: 29.8 µM
- TGI [43]: 48 µM
- TGI [44]: 29.4 µM
- TGI [45]: 39.7 µM
- TGI [46]: 47.9 µM
- TGI [47]: 27.3 µM
- TGI [48]: 31.1 µM
- TGI [49]: 44.7 µM
- TGI [50]: 25.5 µM
- TGI [51]: 47.9 µM
- TGI [52]: 39.1 µM
- TGI [53]: 48.1 µM
- TGI [54]: 38.4 µM
- TGI [55]: 33 µM

SMILES: C=C(C)CCC1CC=[N+]([O-])OC1C(C)(C)C (configuration not stated)
- TGI [1]: > 100 µM
- TGI [2]: > 100 µM
- TGI [3]: 51.4 µM
- TGI [4]: > 100 µM
- TGI [6]: 75.3 µM
- TGI [7]: 50.5 µM
- TGI [8]: > 100 µM
- TGI [9]: > 100 µM
- TGI [10]: > 100 µM
- TGI [11]: > 100 µM
- TGI [12]: > 100 µM
- TGI [13]: > 100 µM
- TGI [14]: 27.2 µM
- TGI [15]: > 100 µM
- TGI [16]: > 100 µM
- TGI [17]: > 100 µM
- TGI [18]: > 100 µM
- TGI [19]: > 100 µM
- TGI [20]: > 100 µM
- TGI [21]: 64.8 µM
- TGI [22]: 40.3 µM
- TGI [23]: 63.5 µM
- TGI [25]: 89.9 µM
- TGI [56]: 66.8 µM
- TGI [26]: 40.7 µM
- TGI [27]: > 100 µM
- TGI [57]: > 100 µM
- TGI [58]: 48.9 µM
- TGI [29]: > 100 µM
- TGI [30]: 58.5 µM
- TGI [31]: 67.3 µM
- TGI [32]: > 100 µM
- TGI [34]: > 100 µM
- TGI [35]: > 100 µM
- TGI [37]: > 100 µM
- TGI [38]: > 100 µM
- TGI [39]: > 100 µM
- TGI [40]: > 100 µM
- TGI [41]: > 100 µM
- TGI [44]: > 100 µM
- TGI [59]: > 100 µM
- TGI [45]: > 100 µM
- TGI [47]: > 100 µM
- TGI [48]: > 100 µM
- TGI [49]: > 100 µM
- TGI [50]: 90.1 µM
- TGI [51]: > 100 µM
- TGI [52]: > 100 µM
- TGI [53]: > 100 µM
- TGI [54]: > 100 µM
- TGI [55]: 85.7 µM

SMILES: N#Cc1cccc(Nc2ncc(-c3ccccc3)o2)c1
- GI50 [1]: 12.9 µM
- TGI [1]: > 25 µM
- GI50 [2]: > 22.2 µM
- TGI [2]: > 25 µM
- GI50 [3]: 11.7 µM
- TGI [3]: > 25 µM
- GI50 [4]: 8.4 µM
- TGI [4]: > 25 µM
- GI50 [5]: > 20.7 µM
- TGI [5]: > 25 µM
- GI50 [6]: 8.44 µM
- TGI [6]: > 25 µM
- GI50 [7]: 20.8 µM
- TGI [7]: > 25 µM
- GI50 [8]: 14.8 µM
- TGI [8]: > 25 µM
- GI50 [9]: 16 µM
- TGI [9]: > 25 µM
- GI50 [10]: 11 µM
- TGI [10]: > 25 µM
- GI50 [11]: > 23.7 µM
- TGI [11]: > 25 µM
- GI50 [12]: 9.02 µM
- TGI [12]: > 25 µM
- GI50 [13]: 16.8 µM
- TGI [13]: > 25 µM
- GI50 [14]: 11 µM
- TGI [14]: > 25 µM
- GI50 [15]: 6.69 µM
- TGI [15]: > 17.8 µM
- GI50 [16]: 7.32 µM
- TGI [16]: > 25 µM
- GI50 [17]: 8.52 µM
- TGI [17]: > 25 µM
- GI50 [18]: > 25 µM
- TGI [18]: > 25 µM
- GI50 [19]: 11.7 µM
- TGI [19]: > 25 µM
- GI50 [20]: > 25 µM
- TGI [20]: > 25 µM
- GI50 [21]: 8.18 µM
- TGI [21]: > 25 µM
- GI50 [22]: 9.47 µM
- TGI [22]: > 25 µM
- GI50 [23]: > 25 µM
- TGI [23]: > 25 µM
- GI50 [24]: > 25 µM
- TGI [24]: > 25 µM
- GI50 [25]: 8.25 µM
- TGI [25]: > 25 µM
- GI50 [56]: 8.38 µM
- TGI [56]: > 25 µM
- GI50 [26]: > 25 µM
- TGI [26]: > 25 µM
- GI50 [57]: > 25 µM
- TGI [57]: > 25 µM
- GI50 [58]: 8.65 µM
- TGI [58]: > 25 µM
- GI50 [28]: > 22.8 µM
- TGI [28]: > 25 µM
- GI50 [29]: 11.3 µM
- TGI [29]: > 25 µM
- GI50 [30]: 19.2 µM
- TGI [30]: > 25 µM
- GI50 [31]: 19.2 µM
- TGI [31]: > 25 µM
- GI50 [32]: 8.71 µM
- TGI [32]: > 25 µM
- GI50 [33]: 10.9 µM
- TGI [33]: > 25 µM
- GI50 [34]: 16.4 µM
- TGI [34]: > 25 µM
- GI50 [35]: 16.7 µM
- TGI [35]: > 25 µM
- GI50 [36]: 15.1 µM
- TGI [36]: > 25 µM
- GI50 [37]: > 25 µM
- TGI [37]: > 25 µM
- GI50 [38]: 5.55 µM
- TGI [38]: 15.8 µM
- GI50 [39]: 17.3 µM
- TGI [39]: > 25 µM
- GI50 [40]: 9.99 µM
- TGI [40]: > 25 µM
- GI50 [41]: 10.3 µM
- TGI [41]: > 25 µM
- GI50 [42]: > 25 µM
- TGI [42]: > 25 µM
- GI50 [43]: > 20.4 µM
- TGI [43]: > 25 µM
- GI50 [44]: 13 µM
- TGI [44]: > 25 µM
- GI50 [59]: 8.4 µM
- TGI [59]: 19.6 µM
- GI50 [45]: 24.2 µM
- TGI [45]: > 25 µM
- GI50 [46]: 17.3 µM
- TGI [46]: > 25 µM
- GI50 [47]: 10.8 µM
- TGI [47]: > 22.6 µM
- GI50 [48]: 11.8 µM
- TGI [48]: > 25 µM
- GI50 [49]: 22.4 µM
- TGI [49]: > 25 µM
- GI50 [50]: 11.7 µM
- TGI [50]: > 25 µM
- GI50 [51]: 16.5 µM
- TGI [51]: > 25 µM
- GI50 [52]: 10.6 µM
- TGI [52]: > 25 µM
- GI50 [53]: > 25 µM
- TGI [53]: > 25 µM
- GI50 [54]: 13.1 µM
- TGI [54]: > 25 µM
- GI50 [55]: 7.84 µM
- TGI [55]: > 25 µM
